{"source": "patent US8993637B2", "about": "(priority 2013, dated 2015)", "system": "RAW 264.7 macrophages", "experiment": "ROS production assay in LPS-activated macrophages", "format": "cell-based, murine", "conditions": "NAC 10 mM; 30 min before and during LPS (1 μg/ml) stimulation, 0-4 h", "method": "ROS production was measured as the relative fluorescence intensity. […] The data are expressed as the mean±SD for three separate experiments. *p<0.05, **p<0.01 compared to the LPS-treated group. RAW-Blue™ cells (Murine macrophages RAW264.7 stably transfected with the NF-κB reporter gene) purchased from InvivoGen (San Diego, Calif.). LPS (from Escherichia coli 0111:B4) and mouse antibodies against phospho-ERK1/2, phospho-JNK1/2, and phospho-p38 (all from Sigma, St. Louis, Mo.). Rabbit antibodies against mouse ERK1, JNK1, and p38, and HRP-labeled second antibodies were purchased from Santa Cruz Biotechnology, and IL-1β, IL-6, and TNF-α ELISA kits from R&D Systems. ROS production assay, NO production assay, NF-κB reporter assay, ELISA, and Western blotting were performed as described previously."}
{"smiles": "CC(=O)N[C@@H](CS)C(=O)O", "note": "[NAC, N-acetyl cysteine, reference compound]", "values": [{"measurement": "LPS-induced increase in ROS production", "result": "reduced"}]}
